As usually defined, the EC50 is the concentration at which the effect is half-maximal.

SMILES strings stand for the structures.

T1 sequence (P13569 with tags, fused parts or gaps DEL508-508): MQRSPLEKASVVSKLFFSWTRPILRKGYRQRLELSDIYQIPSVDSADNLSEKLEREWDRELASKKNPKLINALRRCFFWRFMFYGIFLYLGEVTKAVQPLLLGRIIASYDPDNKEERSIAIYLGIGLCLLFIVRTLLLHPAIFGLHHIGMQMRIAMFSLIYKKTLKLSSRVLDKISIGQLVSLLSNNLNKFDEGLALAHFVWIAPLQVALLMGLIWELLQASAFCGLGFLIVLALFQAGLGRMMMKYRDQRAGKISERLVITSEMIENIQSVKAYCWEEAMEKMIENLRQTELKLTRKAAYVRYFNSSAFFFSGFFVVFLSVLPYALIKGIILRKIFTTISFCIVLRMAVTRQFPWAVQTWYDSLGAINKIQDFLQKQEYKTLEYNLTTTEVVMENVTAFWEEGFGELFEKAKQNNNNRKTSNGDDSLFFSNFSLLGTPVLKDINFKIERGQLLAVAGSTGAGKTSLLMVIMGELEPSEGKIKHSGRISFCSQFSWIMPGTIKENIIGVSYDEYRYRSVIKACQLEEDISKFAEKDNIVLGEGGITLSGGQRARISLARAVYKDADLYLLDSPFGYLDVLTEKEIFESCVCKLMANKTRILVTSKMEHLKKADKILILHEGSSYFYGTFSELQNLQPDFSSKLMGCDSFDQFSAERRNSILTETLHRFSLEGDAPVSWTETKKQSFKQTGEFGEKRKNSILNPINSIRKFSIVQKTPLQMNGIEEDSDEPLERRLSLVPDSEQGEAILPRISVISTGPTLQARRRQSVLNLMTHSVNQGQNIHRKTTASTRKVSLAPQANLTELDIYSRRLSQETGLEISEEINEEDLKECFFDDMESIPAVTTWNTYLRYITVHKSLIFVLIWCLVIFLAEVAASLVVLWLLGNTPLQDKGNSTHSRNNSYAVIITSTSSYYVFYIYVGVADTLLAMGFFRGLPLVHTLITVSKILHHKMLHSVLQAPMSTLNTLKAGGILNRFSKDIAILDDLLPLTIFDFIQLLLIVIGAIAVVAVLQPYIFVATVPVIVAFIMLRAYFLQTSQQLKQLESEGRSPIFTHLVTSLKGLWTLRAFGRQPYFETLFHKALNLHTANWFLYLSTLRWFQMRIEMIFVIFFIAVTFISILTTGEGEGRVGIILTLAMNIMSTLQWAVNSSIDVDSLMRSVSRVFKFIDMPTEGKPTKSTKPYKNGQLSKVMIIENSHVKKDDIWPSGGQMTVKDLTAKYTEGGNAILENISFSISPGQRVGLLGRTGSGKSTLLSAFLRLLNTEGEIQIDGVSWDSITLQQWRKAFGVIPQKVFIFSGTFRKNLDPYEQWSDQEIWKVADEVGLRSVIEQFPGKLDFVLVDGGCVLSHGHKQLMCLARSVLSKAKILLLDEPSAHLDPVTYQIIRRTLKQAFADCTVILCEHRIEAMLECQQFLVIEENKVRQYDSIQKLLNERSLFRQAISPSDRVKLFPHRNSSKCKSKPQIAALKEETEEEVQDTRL

The first experiment has as its target T1, ΔF508-CFTR (Homo sapiens, UniProt P13569, DEL508-508).
T1 construct: expressed in transfected cells
In words: Membrane potential optical assay (FRET voltage-sensor dyes, VIPR), identification of potentiator compounds. It is filed as cell-based. The conditions noted are these: Table 3; assay not given. In outline:
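NIH3T3 mouse fibroblasts stably expressing ΔF508-CFTR, cultured 24 h at 27 °C, were loaded with FRET voltage dyes CC2-DMPE and DiSBAC2(3). Double-addition format: first addition of Cl⁻-free (gluconate) medium with or without compound; membrane-potential change read as fluorescence on VIPR II.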
In the case of `O=C(Nc1ccccc1-c1ccc2[nH]ccc2c1)c1c[nH]c2ccccc2c1=O` [Compound 118, N-[2-(1H-indol-5-yl)phenyl]-4-oxo-1H-quinoline-3-carboxamide], the EC50 was < 10 µM.

Staying with this experiment, now noted: Table 3; assay not given; read-out: % Activity (% Efficacy, relative efficacy).
On to `CC(C)(C)c1cc(C(C)(C)C)c(NC(=O)c2c[nH]c3ccc(Cl)cc3c2=O)cc1O` [Compound 623, 6-chloro-N-(5-hydroxy-2,4-ditert-butyl-phenyl)-4-oxo-1H-quinoline-3-carboxamide], for which the Emax is 25 to 100%. On the same count and under the same terms, with `CCC(CC)(c1cc(F)c(NC(=O)c2cnc3ccccc3c2O)cc1O)C(C)(C)C` [Compound 153, N-[4-(1,1-diethyl-2,2-dimethyl-propyl)-2-fluoro-5-hydroxy-phenyl]-4-hydroxy-quinoline-3-carboxamide] the figure was 25 to 100%; with `Cc1ccc2c(=O)c(C(=O)Nc3cc4[nH]ccc4cc3C(C)(C)C)c[nH]c2c1` [Compound 704, 7-methyl-4-oxo-N-(5-tert-butyl-1H-indol-6-yl)-1H-quinoline-3-carboxamide], 25 to 100%; with `O=C(Nc1ccc(N2CCCCC2)cc1C(F)(F)F)c1c[nH]c2ccccc2c1=O` [Compound 686, 4-oxo-N-[4-(1-piperidyl)-2-(trifluoromethyl)phenyl]-1H-quinoline-3-carboxamide], 25 to 100%. Still for that read-out and setting: then `CC(C)(C)c1ccc(NC(=O)c2c[nH]c3ccccc3c2=O)cc1N1CCCC1` [Compound 707, 4-oxo-N-(3-pyrrolidin-1-yl-4-tert-butyl-phenyl)-1H-quinoline-3-carboxamide], with 25 to 100%; and `O=C(Nc1ccccc1-c1ccccn1)c1c[nH]c2ccccc2c1=O` [Compound 692, 4-oxo-N-[2-(2-pyridyl)phenyl]-1H-quinoline-3-carboxamide], with 25 to 100%; and `CCOC(=O)[C@H]1CCCN(c2ccc(NC(=O)c3c[nH]c4ccccc4c3=O)c(C(F)(F)F)c2)C1` [Compound 660, (S)-ethyl 1-(4-(4-oxo-1,4-dihydroquinoline-3-carboxamido)-3-(trifluoromethyl)phenyl)piperidine-3-carboxylate], with 25 to 100%. In the case of `CC(C)(C)OC(=O)N1CCc2c(cccc2NC(=O)c2c[nH]c3ccccc3c2=O)C1` [Compound 427, 5-[(4-oxo-1H-quinolin-3-yl)carbonylamino]-1,2,3,4-tetrahydroisoquinoline-2-carboxylic acid tert-butyl ester], the Emax was in the range of 25 to 100%. The same measure, in the same setting: with `CC(C)(C)c1cc(F)c(NC(=O)c2c[nH]c3ccc(Cl)cc3c2=O)cc1O` [Compound 561, 6-chloro-N-(2-fluoro-5-hydroxy-4-tert-butyl-phenyl)-4-oxo-1H-quinoline-3-carboxamide] the figure was 25 to 100%. The same measure, in the same setting: with `CC(C)(C)c1ccc(NC(=O)c2c[nH]c3cccc(O)c3c2=O)cc1O` [Compound 633, 5-hydroxy-N-(3-hydroxy-4-tert-butyl-phenyl)-4-oxo-1H-quinoline-3-carboxamide] the figure was 25 to 100%; with `O=C(Nc1ccccc1-c1ccc2[nH]ccc2c1)c1c[nH]c2ccccc2c1=O` [Compound 118, N-[2-(1H-indol-5-yl)phenyl]-4-oxo-1H-quinoline-3-carboxamide], 25 to 100%; with `N#Cc1ccc(NC(=O)c2c[nH]c3ccccc3c2=O)cc1` [Compound 194, N-(4-cyanophenyl)-4-oxo-1H-quinoline-3-carboxamide], < 25%. On to `CC1(c2cc(F)c(NC(=O)c3c[nH]c4ccccc4c3=O)cc2O)CCCCC1` [Compound 92, N-[2-fluoro-5-hydroxy-4-(1-methylcyclohexyl)-phenyl]-4-oxo-1H-quinoline-3-carboxamide], for which the Emax is 25 to 100%. Still for that read-out and setting: then `CC(C)(C)c1cc(F)c(NC(=O)c2c[nH]c3ccc(F)cc3c2=O)cc1O` [Compound 319, 6-fluoro-N-(2-fluoro-5-hydroxy-4-tert-butyl-phenyl)-4-oxo-1H-quinoline-3-carboxamide], with 25 to 100%; and `O=C(Nc1ccc(C(F)(F)F)cc1Cl)c1c[nH]c2ccc(F)cc2c1=O` [Compound 636, N-[2-chloro-4-(trifluoromethyl)phenyl]-6-fluoro-4-oxo-1H-quinoline-3-carboxamide], with < 25%. Regarding `Cc1cc(OC(F)(F)F)ccc1NC(=O)c1c[nH]c2ccccc2c1=O` [Compound 538, N-[2-methyl-4-(trifluoromethoxy)phenyl]-4-oxo-1H-quinoline-3-carboxamide], the Emax was 25 to 100%.

Regarding `O=C(Nc1cccn2ncnc12)c1c[nH]c2ccccc2c1=O` [Compound 146, 4-oxo-N-(1,7,9-triazabicyclo[4.3.0]nona-2,4,6,8-tetraen-5-yl)-1H-quinoline-3-carboxamide], the Emax was < 25%. Consider `CC(C)(C)c1ccc(NC(=O)c2c[nH]c3cccc(O)c3c2=O)cc1F` [Compound 491, N-(3-fluoro-4-tert-butyl-phenyl)-5-hydroxy-4-oxo-1H-quinoline-3-carboxamide], for which the Emax was 25 to 100%. On the same count and under the same terms, then `COc1cc(NC(=O)c2c[nH]c3ccccc3c2=O)cc(C(F)(F)F)c1` [Compound 691, N-[3-methoxy-5-(trifluoromethyl)phenyl]-4-oxo-1H-quinoline-3-carboxamide], with 25 to 100%; and `CC(C)(C)OC(=O)[C@H]1CCCN1c1ccc(NC(=O)c2c[nH]c3ccccc3c2=O)c(C(F)(F)F)c1` [Compound 540, (R)-tert-butyl 1-(4-(4-oxo-1,4-dihydroquinoline-3-carboxamido)-3-(trifluoromethyl)phenyl)pyrrolidine-2-carboxylate], with > 100%.

For the compound `O=C(Nc1ccc(-c2ccccc2)cc1)c1c[nH]c2ccccc2c1=O` [Compound 397, 4-oxo-N-(4-phenylphenyl)-1H-quinoline-3-carboxamide], the Emax was 25 to 100%. Regarding `O=C(Nc1ccccc1-c1ccco1)c1c[nH]c2ccccc2c1=O` [Compound 115, N-[2-(2-furyl)phenyl]-4-oxo-1H-quinoline-3-carboxamide], the Emax fell in the range of 25 to 100%.

For `Cc1cc(C)c(NC(=O)c2c[nH]c3ccccc3c2=O)c(C)c1` [Compound 50, 4-oxo-N-(2,4,6-trimethylphenyl)-1H-quinoline-3-carboxamide], the Emax lay within 25 to 100%.

With `N#Cc1cccc(NC(=O)c2c[nH]c3ccccc3c2=O)c1` [Compound 447, N-(3-cyanophenyl)-4-oxo-1H-quinoline-3-carboxamide], the Emax is 25 to 100%. As to `CCOC(=O)C(C)(C)c1ccc(NC(=O)c2c[nH]c3ccccc3c2=O)cc1` [Compound 420, 2-methyl-2-[4-[(4-oxo-1H-quinolin-3-yl)carbonylamino]phenyl]-propanoic acid ethyl ester], the Emax was in the range of 25 to 100%.

Regarding `O=C(Nc1ccccc1-c1cc2ccccc2[nH]1)c1c[nH]c2ccccc2c1=O` [Compound 38, N-[2-(1H-indol-2-yl)phenyl]-4-oxo-1H-quinoline-3-carboxamide], the Emax was 25 to 100%. The same measure, in the same setting: with `CCc1cccc2c(=O)c(C(=O)Nc3cc(O)c(C(C)(C)C)cc3F)c[nH]c12` [Compound 605, 8-ethyl-N-(2-fluoro-5-hydroxy-4-tert-butyl-phenyl)-4-oxo-1H-quinoline-3-carboxamide] the figure was < 25%.

On to `COc1ccc(-c2ccccc2NC(=O)c2c[nH]c3ccccc3c2=O)cc1OC` [Compound 436, N-[2-(3,4-dimethoxyphenyl)phenyl]-4-oxo-1H-quinoline-3-carboxamide], for which the Emax fell in the range of 25 to 100%. On to `O=C(Nc1cc2[nH]ccc2cc1C(=O)N1CCCCC1)c1c[nH]c2ccccc2c1=O` [Compound 148, 4-Oxo-N-[5-(1-piperidylcarbonyl)-1H-indol-6-yl]-1H-quinoline-3-carboxamide], for which the Emax lay in the range of 25 to 100%. Same read-out and setting: with `CC(C)c1ccc(NC(=O)OC(C)(C)C)cc1NC(=O)c1c[nH]c2ccccc2c1=O` [Compound 60, [4-isopropyl-3-[(4-oxo-1H-quinolin-3-yl)carbonylamino]phenyl]aminoformic acid tert-butyl ester] the figure was 25 to 100%; with `O=C(Nc1ccc2c(c1)CCO2)c1c[nH]c2ccccc2c1=O` [Compound 467, N-(2,3-dihydrobenzofuran-5-yl)-4-oxo-1H-quinoline-3-carboxamide], < 25%. For the compound `CCCCOC(=O)NCC(C)(C)c1ccc(NC(=O)c2c[nH]c3ccccc3c2=O)cc1` [Compound 460, [2-methyl-2-[4-[(4-oxo-1H-quinolin-3-yl)carbonylamino]phenyl]-propyl]aminoformic acid butyl ester], the Emax fell in the range of 25 to 100%. On the same count and under the same terms, with `CC(C)(C)c1cc(C(C)(C)C)c(NC(=O)c2c[nH]c3c(C#N)cccc3c2=O)cc1O` [Compound 505, 8-cyano-N-(5-hydroxy-2,4-ditert-butyl-phenyl)-4-oxo-1H-quinoline-3-carboxamide] the figure was < 25%; with `CCCOc1ccc(N)cc1NC(=O)c1c[nH]c2ccccc2c1=O` [Compound 17, N-(5-Amino-2-propoxy-phenyl)-4-oxo-1H-quinoline-3-carboxamide], 25 to 100%; with `COCCOC(=O)NCC(C)(C)c1ccc(NC(=O)c2c[nH]c3ccccc3c2=O)cc1` [Compound 28, [2-methyl-2-[4-[(4-oxo-1H-quinolin-3-yl)carbonylamino]phenyl]-propyl]aminoformic acid 2-methoxyethyl ester], 25 to 100%. With `COc1ccc(C(C)(C)C)cc1NC(=O)c1c[nH]c2ccccc2c1=O` [Compound 211, N-(2-methoxy-5-tert-butyl-phenyl)-4-oxo-1H-quinoline-3-carboxamide], the Emax is 25 to 100%. Turning to `CC(C)(C)c1cc(C(C)(C)C)c(NC(=O)c2c[nH]c3ccc(F)cc3c2=O)cc1O` [Compound 103, 6-fluoro-N-(5-hydroxy-2,4-ditert-butyl-phenyl)-4-oxo-1H-quinoline-3-carboxamide], the Emax is > 100%. Same read-out and setting: then `CC(C)c1ccc(NC(=O)c2c[nH]c3ccccc3c2=O)cn1` [Compound 235, N-(6-isopropyl-3-pyridyl)-4-oxo-1H-quinoline-3-carboxamide], with 25 to 100%. In the case of `O=C(Nc1ccc2c(c1)OC(F)(F)O2)c1c[nH]c2ccccc2c1=O` [Compound 66, N-(2,2-difluorobenzo[1,3]dioxol-5-yl)-4-oxo-1H-quinoline-3-carboxamide], the Emax was in the range of 25 to 100%.

The values above are taken from patent publication US8802700B2 (Vertex Pharmaceuticals Incorporated, priority 2010, dated 2014).
